Experimental data from US20210228545A1, “METHODS OF TREATING CONDITIONS RELATED TO THE S1P1 RECEPTOR” (Arena Pharmaceuticals, Inc., priority 2018, published 2021).

Key:
[1] = Phase 1 single dosing study: safety and tolerability
CYP enzymes = assay: Metabolism-dependent inhibition of CYP enzymes in human liver microsomes; assay type: in vitro ADME; details: 30 min preincubation with NADPH-regenerating system
Source text: Known metabolism-dependent and/or direct inhibitors of CYP and UGT enzymes were included as positive controls, as applicable.

OATP1B1 = biological target: T1, OATP1B1 (Homo sapiens, UniProt Q9Y6L6); assay: Transporter inhibition, HEK293 cells
T1 sequence (Q9Y6L6 1-691): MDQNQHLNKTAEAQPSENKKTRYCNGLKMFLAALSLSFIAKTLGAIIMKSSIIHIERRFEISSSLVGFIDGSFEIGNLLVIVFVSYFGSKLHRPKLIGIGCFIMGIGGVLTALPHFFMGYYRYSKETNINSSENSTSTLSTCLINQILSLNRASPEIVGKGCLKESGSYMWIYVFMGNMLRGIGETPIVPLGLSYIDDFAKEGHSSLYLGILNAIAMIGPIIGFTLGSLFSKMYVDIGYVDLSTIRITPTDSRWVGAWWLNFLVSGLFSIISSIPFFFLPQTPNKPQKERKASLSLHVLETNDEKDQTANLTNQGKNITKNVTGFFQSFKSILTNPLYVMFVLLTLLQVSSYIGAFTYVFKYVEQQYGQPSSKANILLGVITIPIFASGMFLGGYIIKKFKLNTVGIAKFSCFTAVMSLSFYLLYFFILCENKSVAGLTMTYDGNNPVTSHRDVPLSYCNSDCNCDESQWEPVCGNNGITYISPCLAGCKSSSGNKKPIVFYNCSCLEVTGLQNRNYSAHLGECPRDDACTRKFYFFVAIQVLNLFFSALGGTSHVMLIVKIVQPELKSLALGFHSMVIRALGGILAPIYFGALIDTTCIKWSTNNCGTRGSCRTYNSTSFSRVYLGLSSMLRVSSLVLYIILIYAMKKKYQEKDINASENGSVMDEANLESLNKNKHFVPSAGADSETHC

OATP1B3 = biological target: T2, OATP1B3 (Homo sapiens, UniProt Q9NPD5); assay: Transporter inhibition, HEK293 cells; assay type: in vitro ADME
T2 construct: expressed in transfected cells; host or cells: HEK293
T2 sequence (Q9NPD5 1-702): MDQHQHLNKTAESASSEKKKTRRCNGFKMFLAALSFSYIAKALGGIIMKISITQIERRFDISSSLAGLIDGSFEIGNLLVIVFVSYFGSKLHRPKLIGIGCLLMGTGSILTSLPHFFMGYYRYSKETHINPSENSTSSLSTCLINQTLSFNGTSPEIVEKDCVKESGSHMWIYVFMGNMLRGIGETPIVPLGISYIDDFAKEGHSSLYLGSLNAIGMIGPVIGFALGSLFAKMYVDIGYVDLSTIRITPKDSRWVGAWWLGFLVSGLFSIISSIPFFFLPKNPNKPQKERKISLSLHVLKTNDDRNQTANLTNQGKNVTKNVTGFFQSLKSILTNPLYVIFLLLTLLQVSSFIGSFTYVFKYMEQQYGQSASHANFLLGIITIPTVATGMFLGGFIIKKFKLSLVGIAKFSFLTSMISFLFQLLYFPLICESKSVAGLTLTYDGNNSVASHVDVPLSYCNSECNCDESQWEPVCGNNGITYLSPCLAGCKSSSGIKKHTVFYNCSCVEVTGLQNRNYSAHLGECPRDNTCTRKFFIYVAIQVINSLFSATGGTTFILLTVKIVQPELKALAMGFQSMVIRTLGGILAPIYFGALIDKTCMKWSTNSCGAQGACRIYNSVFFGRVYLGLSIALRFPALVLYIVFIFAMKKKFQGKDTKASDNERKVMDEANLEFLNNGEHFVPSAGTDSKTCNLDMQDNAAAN

BSEP = biological target: T3, BSEP (Homo sapiens, UniProt O95342); assay: Transporter inhibition, vesicular transport assay; assay type: in vitro ADME
T3 construct: host or cells: membrane vesicles

OCT1 = biological target: T4, OCT1 (Homo sapiens, UniProt O15245); assay: Transporter inhibition, HEK293 cells; assay type: in vitro ADME
T4 construct: expressed in transfected cells; host or cells: HEK293
T4 sequence (O15245 1-554): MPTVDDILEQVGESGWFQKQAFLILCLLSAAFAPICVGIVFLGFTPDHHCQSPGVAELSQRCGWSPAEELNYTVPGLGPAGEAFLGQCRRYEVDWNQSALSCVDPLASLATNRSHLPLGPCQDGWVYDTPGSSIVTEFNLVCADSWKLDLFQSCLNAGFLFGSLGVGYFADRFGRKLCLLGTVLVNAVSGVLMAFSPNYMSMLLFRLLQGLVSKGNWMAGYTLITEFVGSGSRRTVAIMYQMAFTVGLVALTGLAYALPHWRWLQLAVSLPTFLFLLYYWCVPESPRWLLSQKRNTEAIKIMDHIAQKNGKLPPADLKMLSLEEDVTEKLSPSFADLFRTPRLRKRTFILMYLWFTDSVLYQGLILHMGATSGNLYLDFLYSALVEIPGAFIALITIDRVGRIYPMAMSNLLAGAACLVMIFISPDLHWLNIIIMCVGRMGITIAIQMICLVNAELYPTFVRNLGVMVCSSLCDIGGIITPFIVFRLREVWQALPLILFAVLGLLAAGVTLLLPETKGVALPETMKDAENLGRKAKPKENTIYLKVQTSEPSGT

OCT2 = biological target: T5, OCT2 (Homo sapiens, UniProt O15244); assay: Transporter substrate evaluation, HEK293 cells; assay type: in vitro ADME; details: 1 and 10 μM
T5 construct: expressed in transfected cells; host or cells: HEK293
T5 sequence (O15244 1-555): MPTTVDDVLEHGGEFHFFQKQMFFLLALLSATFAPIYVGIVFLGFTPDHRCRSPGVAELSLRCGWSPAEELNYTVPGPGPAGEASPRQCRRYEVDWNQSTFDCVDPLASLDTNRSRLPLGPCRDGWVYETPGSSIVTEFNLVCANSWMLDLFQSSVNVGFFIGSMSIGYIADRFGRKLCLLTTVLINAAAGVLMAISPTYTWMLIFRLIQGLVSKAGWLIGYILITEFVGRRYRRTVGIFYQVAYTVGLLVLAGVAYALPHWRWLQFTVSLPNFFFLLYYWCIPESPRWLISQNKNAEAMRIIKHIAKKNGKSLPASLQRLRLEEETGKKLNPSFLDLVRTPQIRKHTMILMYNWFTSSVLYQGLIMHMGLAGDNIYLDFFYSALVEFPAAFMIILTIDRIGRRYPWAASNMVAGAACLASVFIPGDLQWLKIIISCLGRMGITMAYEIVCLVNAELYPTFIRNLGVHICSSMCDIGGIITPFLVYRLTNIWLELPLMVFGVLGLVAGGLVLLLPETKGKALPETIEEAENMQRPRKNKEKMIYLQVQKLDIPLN

T3 sequence (O95342 whole entry): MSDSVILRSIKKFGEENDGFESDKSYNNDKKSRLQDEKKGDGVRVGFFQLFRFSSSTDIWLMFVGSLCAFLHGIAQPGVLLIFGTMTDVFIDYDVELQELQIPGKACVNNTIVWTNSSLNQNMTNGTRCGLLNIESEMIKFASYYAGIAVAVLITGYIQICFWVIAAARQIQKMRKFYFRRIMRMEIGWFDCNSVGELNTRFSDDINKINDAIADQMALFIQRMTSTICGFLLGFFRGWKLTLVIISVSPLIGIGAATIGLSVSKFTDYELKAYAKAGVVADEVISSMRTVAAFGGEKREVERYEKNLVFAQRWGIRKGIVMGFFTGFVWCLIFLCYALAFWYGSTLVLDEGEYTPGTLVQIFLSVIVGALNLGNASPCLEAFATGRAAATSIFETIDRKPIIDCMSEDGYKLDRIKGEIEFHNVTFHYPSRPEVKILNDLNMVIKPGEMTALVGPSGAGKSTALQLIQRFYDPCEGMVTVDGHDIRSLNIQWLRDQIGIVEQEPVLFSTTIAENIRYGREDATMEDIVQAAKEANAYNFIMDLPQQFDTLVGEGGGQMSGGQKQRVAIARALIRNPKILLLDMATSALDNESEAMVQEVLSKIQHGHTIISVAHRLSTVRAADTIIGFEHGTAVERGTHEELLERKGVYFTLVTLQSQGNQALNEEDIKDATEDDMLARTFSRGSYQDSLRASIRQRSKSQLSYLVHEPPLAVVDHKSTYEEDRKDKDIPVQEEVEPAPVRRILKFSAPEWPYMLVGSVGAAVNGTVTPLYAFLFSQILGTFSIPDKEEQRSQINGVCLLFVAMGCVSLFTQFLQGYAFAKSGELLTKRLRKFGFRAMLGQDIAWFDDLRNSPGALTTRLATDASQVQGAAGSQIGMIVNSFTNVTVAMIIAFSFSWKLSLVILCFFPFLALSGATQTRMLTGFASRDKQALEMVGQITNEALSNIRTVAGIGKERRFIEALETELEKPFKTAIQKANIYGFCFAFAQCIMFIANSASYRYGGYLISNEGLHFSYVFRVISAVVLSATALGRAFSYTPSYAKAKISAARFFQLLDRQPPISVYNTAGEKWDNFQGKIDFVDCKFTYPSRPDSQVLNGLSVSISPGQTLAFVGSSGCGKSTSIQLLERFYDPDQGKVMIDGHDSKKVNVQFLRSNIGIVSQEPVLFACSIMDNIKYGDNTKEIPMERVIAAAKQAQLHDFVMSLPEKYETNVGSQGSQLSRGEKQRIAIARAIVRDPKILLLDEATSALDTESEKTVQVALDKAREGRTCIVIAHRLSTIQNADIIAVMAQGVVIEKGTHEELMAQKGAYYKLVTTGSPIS

O=C(O)C[C@H]1CCc2c1[nH]c1ccc(OCc3ccc(C4CCCC4)c(C(F)(F)F)c3)cc21 [Compound 1, (R)-2-(7-(4-cyclopentyl-3-(trifluoromethyl)benzyloxy)-1,2,3,4-tetrahydrocyclopenta[b]indol-3-yl)acetic acid]
Deaths or serious adverse events ([1]; single doses 0.1 to 5 mg): no deaths or serious adverse events | Maximum tolerated dose ([1]; single dosing, L-arginine salt): 3 mg | Metabolism-dependent inhibition of CYPs (CYP enzymes): little or no evidence of metabolism-dependent inhibition | OATP1B1 inhibition (OATP1B1; 1 μM Compound 1): no OATP1B1 inhibition | Reduction of uptake rate of [3H]-estradiol-17β-glucuronide (50 nM) into OATP1B1-expressing cells (OATP1B1; 10 μM Compound 1): ~50% | Reduction of uptake rate of estradiol-17β-glucuronide into OATP1B3-expressing cells (inhibition) (OATP1B3; 1 and 10 μM): less than 50% | IC50 (OATP1B3; HEK293 cells, [3H]-estradiol-17β-glucuronide (50 nM), 1 and 10 μM tested): > 10 µM | Reduction of ATP-dependent uptake of [3H]-taurocholic acid in BSEP-expressing vesicles (inhibition) (BSEP; 1 and 10 μM): less than 50% | IC50 (BSEP; vesicles, [3H]-taurocholic acid (0.4 μM), 1 and 10 μM tested): > 10 µM | Reduction of uptake rate of tetraethylammonium bromide into OCT1-expressing cells (inhibition) (OCT1; 1 and 10 μM): less than 50% | IC50 (OCT1; HEK293 cells, [14C]-tetraethylammonium bromide (5 μM), 1 and 10 μM tested): > 10 µM | Potential substrate of OCT2 (OCT2; HEK293 cells): not a substrate of OCT2 and not a substrate and No | Uptake ratio into OCT2-expressing cells (OCT2; absence and presence of quinidine (300 μM)): below two
